Where two headings read alike, the source gives them in different places.
Legend:
[1] = tested on: DENV-2 16681 strain; experiment: DENV-2 antiviral assay (eGFP-labeled virus, Vero cells); type: cell-based, Dengue virus; settings: for EC50: DENV-2 16681 eGFP, Vero cells, MOI 0.5, 3 days; for SI: SI=CC50/EC50, DENV-2 antiviral assay
Method: The antiviral activity of all the compounds of the invention was tested against the DENV-2 16681 strain which was labeled with enhanced green fluorescent protein (eGPF). The culture medium consists of minimal essential medium supplemented with 2% of heat-inactivated fetal calf serum, 0.04% gentamycin (50 mg/mL) and 2 mM of L-glutamine. Vero cells, obtained from ECACC, were suspended in culture medium and 25 μL was added to 384-well plates (2500 cells/well), which already contain the antiviral compounds. Typically, these plates contain a 5-fold serial dilution of 9 dilution steps of the test compound at 200 times the final concentration in 100% DMSO (200 nL). […] Finally, each plate contains wells which are assigned as virus controls (containing cells and virus in the absence of compound), cell controls (containing cells in the absence of virus and compound) and medium controls (containing medium in the absence of cells, virus and compounds). To the wells assigned as medium control, 25 μL of culture medium was added instead of Vero cells. Once the cells were added to the plates, the plates were incubated for 30 minutes at room temperature to allow the cells to distribute evenly within the wells. Next, the plates were incubated in a fully humidified incubator (37° C., 5% CO2) until the next day. Then, DENV-2 strain 16681, labeled with eGFP, was added at a multiplicity of infection (MOI) of 0.5. Therefore, 15 μL of virus suspension was added to all the wells containing test compound and to the wells assigned as virus control. In parallel, 15 μL of culture medium was added to the medium and cell controls. Next, the plates were incubated for 3 days in a fully humidified incubator (37° C., 5% CO2). At the day of the read out, the eGFP fluorescence was measured using an automated fluorescence microscope at 488 nm (blue laser). Using an in-house LIMS system, inhibition dose response curves for each compound were calculated and the half maximal effective concentration (EC50) was determined. Therefore, the percent inhibition (I) for every test concentration is calculated using the following formula: I=100*([…])/(SVC−SCC); ST, SCC and SVC are the amount of eGFP signal in the test compound, cell control and virus control wells, respectively. The EC50 represents the concentration of a compound at which the virus replication is inhibited with 50%, as measured by a 50% reduction of the eGFP fluorescent intensity compared to the virus control. The EC50 is calculated using linear interpolation (Table 1).

[2] = in vitro; settings: African green monkey
[3] = tested on: DENV-1 strain TC974#666; experiment: Tetravalent RT-qPCR assay, serotype 1; type: cell-based, Dengue virus; settings: for EC50: RT-qPCR serotype 1 TC974#666, Protocol A, Vero cells, day 3, read-out: EC50; for SI: RT-qPCR serotype 1 TC974#666
Method: (§1) The antiviral activity of the compounds of the invention was tested against DENV-1 strain TC974#666 (NCPV), DENV-2 strain 16681, DENV-3 strain H87 (NCPV) and DENV-4 strain H241 (NCPV) in a RT-qPCR assay. Therefore, Vero cells were infected with either DENV-1, or -2, or -3, or -4 in the presence or absence of test compounds. At day 3 post-infection, the cells were lysed and cell lysates were used to prepare cDNA of both a viral target (the 3′UTR of DENV; Table 2) and a cellular reference gene (β-actin, Table 2). Subsequently, a duplex real time PCR was performed on a Lightcycler480 instrument. The generated Cp value is inversely proportional to the amount of RNA expression of these targets. Inhibition of DENV replication by a test compound result in a shift of Cp's for the 3′UTR gene. On the other hand, if a test compound is toxic to the cells, a similar effect on β-actin expression will be observed. The comparative ΔΔCp method is used to calculate EC50, which is based on the relative gene expression of the target gene (3′UTR) normalized with the cellular housekeeping gene (β-actin). In addition, CC50 values are determined based on the Cp values acquired for the housekeeping gene β-actin.
(§2) The culture medium consisted of minimal essential medium supplemented with 2% of heat-inactivated fetal calf serum, 0.04% gentamycin (50 mg/mL) and 2 mM of L-glutamine. Vero cells, obtained from ECACC, were suspended in culture medium and 75 μL/well was added in 96-well plates (10000 cells/well), which already contain the antiviral compounds. […] In addition, each plate contains wells which are assigned as virus controls (containing cells and virus in the absence of compound) and cell controls (containing cells in the absence of virus and compound). Once the cells were added in the plates, the plates were incubated in a fully humidified incubator (37° C., 5% CO2) until the next day. Dengue viruses serotype-1, 2, 3 and 4 were diluted in order to obtain a Cp of ˜22-24 in the assay. Therefore, 25 μL of virus suspension was added to all the wells containing test compound and to the wells assigned as virus control. In parallel, 25 μL of culture medium was added to the cell controls. Next, the plates were incubated for 3 days in a fully humidified incubator (37° C., 5% CO2). After 3 days, the supernatant was removed from the wells and the cells were washed twice with ice-cold PBS (˜100 μL). The cell pellets within the 96-well plates were stored at −80° C. for at least 1 day. Next, RNA was extracted using the Cells-to-CT™ lysis kit, according to the manufacturer's guideline (Life Technologies). The cell lysates can be stored at −80° C. or immediately used in the reverse transcription step.
(§3) In preparation of the reverse transcription step, mix A (table 3A) was prepared and 7.57 μL/well was dispensed in a 96-well plate. After addition of 5 μL of the cell lysates, a five minute denaturation step at 75° C. was performed (table 3B). Afterwards, 7.43 μL of mix B was added (table 3C) and the reverse transcription step was initiated (table 3D) to generate cDNA.
(§4) Finally, a RT-qPCR mix was prepared, mix C (table 4A), and 22.02 μL/well was dispensed in 96-well LightCycler qPCR plates to which 3 μL of cDNA was added and the qPCR was performed according to the conditions in table 4B on a LightCycler 480.
(§5) Using the LightCycler software and an in-house LIMS system, dose response curves for each compound were calculated and the half maximal effective concentration (EC50) and the half maximal cytotoxic concentration (CC50) were determined (Tables 5-8).

[4] = tested on: DENV-2 strain 16681; experiment: Tetravalent RT-qPCR assay, serotype 2; type: cell-based, Dengue virus; settings: for EC50: RT-qPCR serotype 2 16681, Protocol A, Vero cells, day 3; for SI: RT-qPCR serotype 2 16681
Method: as §1, §2, §3, §4, §5

[5] = tested on: DENV-3 strain H87; experiment: Tetravalent RT-qPCR assay, serotype 3; type: cell-based, Dengue virus; settings: for EC50: RT-qPCR serotype 3 H87, Protocol A, Vero cells, day 3, read-out: EC50; for SI: RT-qPCR serotype 3 H87
Method: as §1, §2, §3, §4, §5

[6] = tested on: DENV-4 strain H241; experiment: Tetravalent RT-qPCR assay, serotype 4; type: cell-based, Dengue virus; settings: for EC50: RT-qPCR serotype 4 H241, Protocol A, Vero cells, day 3; for SI: RT-qPCR serotype 4 H241
Method: as §1, §2, §3, §4, §5

[7] = tested on: Vero cells; settings: African green monkey
[8] = Dengue virus, DENV2, Vero, 72 h
[9] = Dengue virus, DENV1, Vero, 72 h
[10] = Dengue virus, DENV3, Vero, 72 h
[11] = Dengue virus, DENV4, Vero, 72 h

| Structure (SMILES) | SI [1] | CC50 [2] [nM] | EC50 [1] [nM] | EC50 [3, 9] [nM] | EC50 [5, 10] [nM] | EC50 [6, 11] [nM] | further results |
| --- | --- | --- | --- | --- | --- | --- | --- |
| COc1cc(NC(C(=O)c2c[nH]c3cc(OC(F)(F)F)c(C)cc23)c2ccc(F)cc2OC)cc(OCCO)c1 (racemic) [Compound 4, 2-(4-fluoro-2-methoxyphenyl)-2-((3-(2-hydroxyethoxy)-5-methoxyphenyl)amino)-1-(5-methyl-6-(trifluoromethoxy)-1H-indol-3-yl)ethanone] | 359 | 3900 |  |  |  |  | EC50 [1, 8]: 11 nM |
| CCOc1cc2[nH]cc(C(=O)C(Nc3cc(OC)cc(OCCO)c3)c3ccc(F)cc3OC)c2cc1C (racemic) [Compound 6, 1-(6-ethoxy-5-methyl-1H-indol-3-yl)-2-(4-fluoro-2-methoxyphenyl)-2-((3-(2-hydroxyethoxy)-5-methoxyphenyl)amino)ethanone] | 3160 | 5700 |  |  |  |  | EC50 [1, 8]: 1.8 nM |
| COc1cc(NC(C(=O)c2c[nH]c3cc(F)ccc23)c2ccc(Cl)cc2OC)cc(OCCOP(=O)(O)O)c1 (racemic) [Compound 13-P, 2-(3-((1-(4-chloro-2-methoxyphenyl)-2-(6-fluoro-1H-indol-3-yl)-2-oxoethyl)amino)-5-methoxyphenoxy)ethyl dihydrogen phosphate] | 5210 | 11000 |  |  |  |  | EC50 [1, 8]: 2.1 nM |
| COc1cc(NC(C(=O)c2c[nH]c3cc(F)ccc23)c2ccc(Cl)cc2OC)cc(OCCOP(=O)(O)O)c1 (single isomer, unassigned) [13A-P^b] |  | 11000 | 0.48 | 4.2 | 42 | 250 | EC50 ([1]; listed as 13A-P^c): 0.94 nM; EC50 ([3]; listed as 13A-P^c): 4.4 nM; EC50 [4]: 0.97 nM; EC50 ([4]; listed as 13A-P^c): 0.44 nM; EC50 ([5]; listed as 13A-P^c): 28 nM; EC50 ([6]; listed as 13A-P^c): 230 nM |
| COc1cc(NC(C(=O)c2c[nH]c3c(C)cc(Cl)cc23)c2ccc(F)cc2OC)cc(OCCO)c1 (single isomer, unassigned) [Compound 1B] | 148 |  | 72 |  |  |  | CC50 [7]: 11000 nM |
| COc1cc(NC(C(=O)c2c[nH]c3cc(OC)c(Cl)cc23)c2ccc(F)cc2OC)cc(OCCO)c1 (single isomer, unassigned) [Compound 2B] | 85 |  | 130 |  |  |  | CC50 [7]: 11000 nM |
| COc1cc(NC(C(=O)c2c[nH]c3cc(OC(F)(F)F)c(C)cc23)c2ccc(F)cc2OC)cc(OCCO)c1 (single isomer, unassigned) [Compound 4A] | 5.4 | 3400 | 630 |  |  |  |  |
| COc1cc(NC(C(=O)c2c[nH]c3cc4c(cc23)CCO4)c2ccc(F)cc2OC)cc(OCCO)c1 (single isomer, unassigned) [Compound 7A] | 13700 | 10000 | 1 | 7.8 | 63 | 380 | SI [3]: 713; EC50 [4, 8]: 1.6 nM; SI [4]: 5930; SI [5]: 76; SI [6]: 12 |
| COc1cc(NC(C(=O)c2c[nH]c3c4c(ccc23)OCC4)c2ccc(F)cc2OC)cc(OCCO)c1 (single isomer, unassigned) [Compound 8A] | 4240 | 12000 | 4.3 | 20 | 150 | 710 | SI [3]: 560; EC50 [4, 8]: 8.1 nM; SI [4]: 1530; SI [5]: 64; SI [6]: 20 |
| COc1cc(NC(C(=O)c2c[nH]c3cc(F)c(C)cc23)c2ccc(Cl)cc2OC)cc(OCCO)c1 (single isomer, unassigned) [Compound 9A] | 70 | 3700 | 52 |  |  |  |  |
| COc1cc(NC(C(=O)c2c[nH]c3cc4c(cc23)CCO4)c2ccc(Cl)cc2OC)cc(OCCO)c1 (single isomer, unassigned) [Compound 10A] | 44 | 4900 | 110 |  |  |  |  |
| COc1cc(NC(C(=O)c2c[nH]c3c4c(ccc23)OCC4)c2ccc(Cl)cc2OC)cc(OCCO)c1 (single isomer, unassigned) [Compound 11A] | 7460 | 6000 | 0.88 | 8.5 | 28 | 270 | SI [3]: 1350; EC50 [4, 8]: 1.9 nM; SI [4]: 2490; SI [5]: 359; SI [6]: >9.1 |
| COc1cc(NC(C(=O)c2c[nH]c3cc(OC)c(C)c(F)c23)c2ccc(Cl)cc2OC)cc(OCCO)c1 (single isomer, unassigned) [Compound 12A] | 1200 | 5600 | 6 |  |  |  |  |
| [2H]C(Nc1cc(OC)cc(OCCO)c1)(C(=O)c1c[nH]c2cc(F)ccc12)c1ccc(Cl)cc1OC (single isomer, unassigned) [Compound 13A-D] | 24300 | 11000 | 0.46 | 5.2 | 36 | 210 | SI [3]: 3070; EC50 [4, 8]: 0.61 nM; SI [4]: >8520; SI [5]: >96; SI [6]: 24 |
